Legend:
[1] = system: expression of co-stimulatory molecules by Raw 264 macrophage cells; assay: Flow cytometry of co-stimulatory molecules CD40 and CD80 on macrophages treated with analgesic, with or without LPS; format: cell-based, Murine; settings: for effect on basal expression of co-stimulatory molecules CD40 and CD80 by macrophages: 5 × 10^5, 5 × 10^4, 5 × 10^3, 5 × 10^2, 50 and 5 nM
Description: Murine RAW264.7 or J774 macrophage cells (obtained from ATCC) were used in this study. Cells were maintained in a culture medium containing RPMI 1640 supplemented with 10% fetal bovine serum (FBS), 15 mM HEPES, 2 mM L-glutamine, 100 U/ml penicillin, and 100 μg/ml of streptomycin. Cells were cultured at 37° C. in a 5% CO2 atmosphere and split (passages) once a week.
RAW264.7 macrophage cells were seeded in 96-well plates at a cell density of 1.5×10^5 cells per well in 100 μl of the culture medium. […] Briefly, the analgesics were dissolved in FBS-free culture medium (i.e., RPMI 1640 supplemented with 15 mM HEPES, 2 mM L-glutamine, 100 U/ml penicillin, and 100 μg/ml of streptomycin), and diluted to desired concentrations by serial dilution with the same medium. For cells treated with analgesic in the absence of LPS, 50 μl of analgesic solution and 50 μl of FBS-free culture medium were added to each well. For cells treated with analgesic in the presence of LPS, 50 μl of analgesic solution and 50 μl of LPS (from Salmonella typhimurium) in FBS-free culture medium were added to each well. All conditions were tested in duplicates.
After 24 or 48 hours of culture, 150 μl of culture supernatants were collected, spun down for 2 min at 8,000 rpm at 4° C. to remove cells and debris and stored at −70° C. for analysis of cytokine responses by ELISA. The cells were collected and washed by centrifugation (5 min at 1,500 rpm at 4° C.) in 500 μl of Phosphate buffer (PBS). Half of the cells were then snap frozen in liquid nitrogen and stored at −70° C. The remaining cells were stained with fluorescent monoclonal antibodies and analyzed by flow cytometry.
For flow cytometry analysis, macrophages were diluted in 100 μl of FACS buffer (phosphate buffered saline (PBS) with 2% bovine serum albumin (BSA) and 0.01% NaN3) and stained 30 min at 4° C. by addition of FITC-conjugated anti-CD40, PE-conjugated anti-CD80, PE-conjugated anti-CD86 antibody, anti MHC class II (I-A^d) PE (BD Bioscience). Cells were then washed by centrifugation (5 min at 1,500 rpm at 4° C.) in 300 μl of FACS buffer. After a second wash, cells were re-suspended in 200 μl of FACS buffer and the percentage of cells expressing a given marker (single positive), or a combination of markers (double positive) were analyzed with the aid of an Accuri C6 flow cytometer (BD Biosciences).

[2] = system: IL-6 secretion by normal human bladder smooth muscle cells; assay: IL-6 ELISA of normal human bladder smooth muscle cell supernatants; format: cell-based; settings: for IL-6 (pg/ml) Subject 1 / IL-6 (pg/ml) Subject 2: Carbachol 10^−3 M plus analgesic 50 μM; for IL-6 (pg/ml) Subject 1: carbachol alone 232, unstimulated <5, mean of duplicates; for IL-6 (pg/ml) Subject 2: carbachol alone 278, unstimulated <5; for effect on the effect of carbachol and LPS on IL-6 responses: LPS-induced responses: analgesic at either 5 μM or 50 μM
Description: Culture supernatants were subjected to cytokine-specific ELISA to determine IL-1β, IL-6 and TNF-α responses in cultures of macrophages treated with analgesic, LPS alone or a combination of LPS and analgesic. The assays were performed on Nunc MaxiSorp Immunoplates (Nunc) coated overnight with 100 μl of anti-mouse IL-6, TNF-α mAbs (BD Biosciences) or IL-1β mAb (R&D Systems) in 0.1 M sodium bicarbonate buffer (pH 9.5). After two washes with PBS (200 μl per well), 200 μl of PBS 3% BSA were added in each well (blocking) and the plates incubated for 2 hours at room temperature. Plates were washed again two times by addition of 200 μl per well, 100 μl of cytokine standards and serial dilutions of culture supernatants were added in duplicate and the plates were incubated overnight at 4° C. Finally, the plates were washed twice and incubated with 100 μl of secondary biotinylated anti-mouse IL-6, TNFα mAbs (BD Biosciences) or IL-1β (R&D Systems) followed by peroxidase-labelled goat anti-biotin mAb (Vector Laboratories). The colorimetric reaction was developed by the addition of 2,2′-azino-bis(3)-ethylbenzylthiazoline-6-sulfonic acid (ABTS) substrate and H2O2 (Sigma) and the absorbance measured at 415 nm with a Victor® V multilabel plate reader (PerkinElmer).
Normal human bladder smooth muscle cells were isolated by enzymatic digestion from macroscopically normal pieces of human bladder. Cells were expended in vitro by culture at 37° C. in a 5% CO2 atmosphere in RPMI 1640 supplemented with 10% fetal bovine serum, 15 mM HEPES, 2 mM L-glutamine, 100 U/ml penicillin, and […] of streptomycin and passage once a week by treatment with trypsin to detach cells followed by reseeding in a new culture flask. The first week of culture, the culture medium was supplemented with 0.5 ng/ml epidermal growth factor, 2 ng/ml fibroblast growth factor, and 5 μg/ml insulin.
Bladder smooth muscle cells trypsinized and seeded in microculture plates at a cell density of 3×10^4 cells per well in 100 μl were treated with analgesic solutions (50 μl/well) either alone or together carbachol (10-Molar, 50 μl/well), as an example of non-inflammatory stimuli, or lipopolysaccharide (LPS) of Salmonella typhimurium (1 μg/ml, 50 μl/well), as an example of […] stimuli. When no other effectors were added to the cells, 50 μl of RPMI 1640 without fetal bovine serum were added to the wells to adjust the final volume to 200 μl.
After 24 hours of culture, 150 μl of culture supernatants were collected, spun down for 2 min at 8,000 rpm at 4° C. to remove cells and debris and stored at −70° C. for analysis of Prostaglandin E2 (PGE2) responses by ELISA. Cells were fixed, permeabilized and blocked for detection of COX2 using a fluorogenic substrate. In selected experiment cells were stimulated 12 hours in vitro for analysis of COX2, PGE2 and cytokine responses.
COX2 and PGE2 responses were analyzed as described in Example 3. Cytokine responses were analyzed as described in Example 2.

[3] = analgesic alone, 5 nM, negative control 20.6
[4] = analgesic alone, 50 nM, negative control 20.6
[5] = analgesic alone, 500 nM, negative control 20.6
[6] = analgesic alone, 5 × 10^3 nM, negative control 20.6
[7] = analgesic alone, 5 × 10^4 nM, negative control 20.6
[8] = analgesic alone, 5 × 10^5 nM, negative control 20.6
[9] = analgesic alone, 5 × 10^6 nM, negative control 20.6
[10] = analgesic plus LPS, analgesic 5 nM, LPS 5 ng/ml alone 77.8
[11] = analgesic plus LPS, analgesic 50 nM, LPS 5 ng/ml alone 77.8
[12] = analgesic plus LPS, analgesic 500 nM, LPS 5 ng/ml alone 77.8
[13] = analgesic plus LPS, analgesic 5 × 10^3 nM, LPS 5 ng/ml alone 77.8
[14] = analgesic plus LPS, analgesic 5 × 10^4 nM, LPS 5 ng/ml alone 77.8
[15] = analgesic plus LPS, analgesic 5 × 10^5 nM, LPS 5 ng/ml alone 77.8
[16] = analgesic plus LPS, analgesic 5 × 10^6 nM, LPS 5 ng/ml alone 77.8

| Structure (SMILES) | effect on expression of the co-stimulatory molecules at the highest dose ([1]; 5 × 10^6 nM) | effect on basal expression of co-stimulatory molecules CD40 and CD80 by macrophages [1] | % Positive CD40+CD80+ [1, 3] [%] | % Positive CD40+CD80+ [1, 4] [%] | % Positive CD40+CD80+ [1, 5] [%] | % Positive CD40+CD80+ [1, 6] [%] | % Positive CD40+CD80+ [1, 7] [%] | % Positive CD40+CD80+ [1, 8] [%] | % Positive CD40+CD80+ [1, 9] [%] | % Positive CD40+CD80+ [1, 10] [%] | % Positive CD40+CD80+ [1, 11] [%] | % Positive CD40+CD80+ [1, 12] [%] | % Positive CD40+CD80+ [1, 13] [%] | % Positive CD40+CD80+ [1, 14] [%] | % Positive CD40+CD80+ [1, 15] [%] | % Positive CD40+CD80+ [1, 16] [%] | IL-6 (pg/ml) Subject 1 [2] [pg/mL] | IL-6 (pg/ml) Subject 2 [2] [pg/mL] | effect on the effect of carbachol and LPS on IL-6 responses [2] | IL-6 responses to stimulus alone ([2]; no analgesic) |
| --- | --- | --- | --- | --- | --- | --- | --- | --- | --- | --- | --- | --- | --- | --- | --- | --- | --- | --- | --- | --- |
| CC(=O)Nc1ccc(O)cc1 [Acetaminophen, N-acetyl-para-aminophenol] | enhance | inhibit | 7.5 | 9.5 | 8.3 | 9.8 | 12 | 18 | 63 | 62.1 | 66.2 | 66.8 | 68.8 | 72.4 | 82.7 | 95.1 | 119 | 135 | suppress |  |
| CC(=O)Oc1ccccc1C(=O)O [Aspirin, Acetylsalicylic acid] | enhance | inhibit | 7.5 | 10.5 | 8 | 8.3 | 10.3 | 11 | 44 | 65.7 | 70.1 | 75.8 | 74.7 | 78.7 | 80 | 84.5 | 95 | 146 | suppress |  |
| C[N+](C)(C)CCOC(N)=O [Carbachol, carbachol] |  |  |  |  |  |  |  |  |  |  |  |  |  |  |  |  |  |  |  | induced low, but significant TNFα and IL-6 responses |
| CC(C)Cc1ccc(C(C)C(=O)O)cc1 (stereo not drawn) [Ibuprofen, ibuprofen] | enhance | inhibit | 5.8 | 4.9 | 6.0 | 7.9 | 7.7 | 6.4 |  | 60.3 | 63.7 | 71.1 | 72.9 | 77.9 | 67 |  | 107 | 118 | suppress |  |
| COc1ccc2cc([C@H](C)C(=O)O)ccc2c1 [Naproxen] | enhance | inhibit | 5.2 | 6.8 | 7.2 | 6.9 | 7.7 | 9.6 | 37 | 73 | 72 | 68.8 | 71.0 | 77.1 | 74.1 | 66.0 | 114 | 127 | suppress |  |
